{"source": "paper PMC5740082", "about": "“Identification of a CARM1 Inhibitor with Potent In Vitro and In Vivo Activity in Preclinical Models of Multiple Myeloma” (Scientific Reports, 2017)", "key": {"[1]": {"system": "REC-1", "assay": "Six-day cell proliferation assay (CellTiter-Glo)", "format": "cell-based", "details": "Homo sapiens, Rec1, 144 h; REC-1 (B-NHL), 6 days; read-out: Average day 6 gIC50", "experimental": "(§1) Six-day cell proliferation assay\n(§2) Optimal cell seeding density was determined empirically for each cell lines by examining the gro wth of a wide ran ge o f seedin g densities in a 3 84-well formatto identify conditio ns that permitted maximal and continued proliferation for 6 days. Cells were plat ed in duplicate plates 24 hours before treatment with a 20- point two-fold dilution series of compound or 0.15%\n(§3) DMSO. Plates were incubated for 6 da ys at 37°C in 5% CO2. Cells were th en l ysed with CellTiter-Glo (CTG) (Pr omega) and chemiluminescent sign al was detected with an appropriat e microplate reader. In addition, an untreated plate of cells was harvested at the time of compound addition (T0) to quantif y the initial cell densit y. CTG values obtained after 6 days of treatment were expressed as a percent of the T0 value and plotted against compound concentration. […]\n(§4) Supplementary Table S 3. […] A p anel […]\n(§5) of cell lines was treated with EZM2302fo r 6da ys in a proliferation ass a y. Cell densit y (as assessed b y CellTiter-Gl o) at da y 0 was compared to day 6 to det ermine growth IC 50 values , calculated us i n g a f our parameter dose response equation.\n(§6) Cell Type According to Cell Type Category Cell L ine Name gIC50 Average day 6 Standard Replicates\nSupplier Modifier gIC50 (nM) Deviation"}, "[2]": {"assay": "Pharmacokinetic study in rat", "description": "An additional group of rats, cannulated in both the jugular and portal veins were dosed by oral gavage (10 mg/kg, in 0.5% methylcellulose in water). Approximately 110 μL of blood was taken from the animals by retro-orbital bleeding (mouse), tail vein (rat i.v.) or both jugular and portal vein sampling (rat p.o.) at pre-specified time intervals. The 2 h samples were split for parallel determination of blood and plasma concentration (ex vivo ratio). Blood samples were collected into K2-EDTA tubes and centrifuged to obtain plasma."}, "[3]": {"system": "RPMI-8226 xenograft", "assay": "RPMI-8226 multiple myeloma xenograft study", "format": "in vivo, CB-17 SCID mice", "experimental": "For the in vivo efficacy studies, there were 8 mice per dose group and each mouse was inoculated subcutaneously at the right flank. All cells were suspended in a 0.2 mL mixture of base media and Matrigel at 1:1 for tumor development. RPMI-8226 cells were inoculated at 5 × 10^6 cells/mouse and treatment began when the mean tumor sizes reached 120 mm^3 (28 days post-inoculation). CB-17 SCID Mice were assigned into groups using a randomized block design. […] Body weights were measured twice a week for the duration of the study. Tumor size was measured twice weekly in two dimensions using a caliper, and the volume was expressed in cubic millimeters. Animals were euthanized 3 hours post-final dose, with blood and tissues collected for analysis."}, "[4]": {"system": "PABP1 and SmB methylation in NCI-H929 cells", "assay": "Western blot of cellular methyl marks, NCI-H929", "details": "Homo sapiens, NCI-H929, 96 h", "description": "Methylation changes were measured at the well-characterized CARM1 substrates PABP1 and SmB[1],[10]. Changes in overall levels of asymmetric dimethyl arginine (aDMA) were assessed with an antibody that detects a generic aDMA motif. Levels of methylated analytes were quantified by densitometry and ratios of methylated to total protein were calculated to determine the cell biochemical IC50 values.\nCultured cells in linear/log phase growth were split to a seeding density of 2e5 cells/mL in 2–20mLs of media, depending on the yield required at the end of the growth period. Compound was diluted in DMSO and added to each culture vessel with a final DMSO concentration of 0.2%. Cells were allowed to grow for 96 hours. At the conclusion of each treatment period, cells were harvested by centrifugation (5 minutes, 1200 rpm), and cell pellets were rinsed once with PBS before being frozen on dry ice pending further processing.\nQuantification of Western blots was performed using infra-red emitting secondary antibodies and detection with an ODYSSEY infrared imaging system."}, "[5]": {"assay": "Plasma protein binding (equilibrium dialysis), rat plasma", "format": "in vitro ADME", "details": "Sprague-Dawley, pH 7.4", "experimental": "Hepatocyte stability, plasma protein binding and cytochrome P450 assays were performed using standard procedures. Details can be found in Supplementary Methods. […]\nPlasma protein binding was assessed b y equilibrium dial ysis, utilizing the HT-dial ysis cell format with a cellulose semi- permeable membran e (molecular wei ght cut-off of 5000 Da).\n(pH 7.4) and 100% mixed gender pooled human, pooled male CD -1 mouse or Sprague-Dawle y rat plasma. The buffer solution was added to one s ide of the membrane and the plasma solution to the other side. Incubations were performed in duplicate for 16 h, at 37°C, in order to allow the compounds to reach equi librium. Haloperidol was incubated in parallel as the control compound for each speci es. At the end of the incubation time, samples were taken from both sides of the membrane. Following protein precipitation, the samples were anal yz ed b y LC-MS/MS using two sets of calibration standards for protein free (7 poi nts) and protein containi ng solutions (6 points). Samples were quantified using standard curves prepared in the equivalent matrix. The fraction unbound in plas ma (fu) was calculated us ing the followin g equ ation: […]"}, "[6]": {"system": "TF-1", "assay": "Six-day cell proliferation assay (CellTiter-Glo)", "format": "cell-based", "details": "Homo sapiens, 144 h; TF-1 (AML M6; Erythroleukemia), 6 days; read-out: Average day 6 gIC50", "experimental": "as §1, §2, §3, §4, §5, §6"}, "[7]": {"system": "RPMI-8226", "assay": "Six-day cell proliferation assay (CellTiter-Glo)", "format": "cell-based", "details": "Homo sapiens, 144 h; RPMI-8226 (MM), 6 days; read-out: Average day 6 gIC50", "experimental": "as §1, §2, §3, §4, §5, §6"}, "[8]": {"system": "SHI-1", "assay": "Six-day cell proliferation assay (CellTiter-Glo)", "format": "cell-based", "details": "144 h; SHI-1 (AML), 6 days; read-out: Average day 6 gIC50", "experimental": "as §1, §2, §3, §4, §5, §6"}, "[9]": {"system": "U266 B1", "assay": "Six-day cell proliferation assay (CellTiter-Glo)", "format": "cell-based", "details": "Homo sapiens, U-266, 144 h; U266 B1 (MM), 6 days; read-out: Average day 6 gIC50", "experimental": "as §1, §2, §3, §4, §5, §6"}, "[10]": {"system": "SH-2", "assay": "Six-day cell proliferation assay (CellTiter-Glo)", "format": "cell-based", "details": "144 h; SH-2 (AML), 6 days; read-out: Average day 6 gIC50", "experimental": "as §1, §2, §3, §4, §5, §6"}, "[11]": {"system": "UCSD-AML1", "assay": "Six-day cell proliferation assay (CellTiter-Glo)", "format": "cell-based", "details": "144 h; UCSD-AML1 (AML), 6 days; read-out: Average day 6 gIC50", "experimental": "as §1, §2, §3, §4, §5, §6"}, "[12]": {"system": "SK-MM-2", "assay": "Six-day cell proliferation assay (CellTiter-Glo)", "format": "cell-based", "details": "Homo sapiens, 144 h; SK-MM-2 (Plasma cell leukemia), 6 days; read-out: Average day 6 gIC50", "experimental": "as §1, §2, §3, §4, §5, §6"}, "[13]": {"system": "NOMO-1", "assay": "Six-day cell proliferation assay (CellTiter-Glo)", "format": "cell-based", "details": "Homo sapiens, 144 h; NOMO-1 (AML), 6 days; read-out: Average day 6 gIC50", "experimental": "as §1, §2, §3, §4, §5, §6"}, "[14]": {"system": "UT-7", "assay": "Six-day cell proliferation assay (CellTiter-Glo)", "format": "cell-based", "details": "Homo sapiens, UT7, 144 h; UT-7 (AML), 6 days; read-out: Average day 6 gIC50", "experimental": "as §1, §2, §3, §4, §5, §6"}, "[15]": {"system": "OPM-2", "assay": "Six-day cell proliferation assay (CellTiter-Glo)", "format": "cell-based", "details": "Homo sapiens, 144 h; OPM-2 (MM), 6 days; read-out: Average day 6 gIC50", "experimental": "as §1, §2, §3, §4, §5, §6"}, "[16]": {"details": "Sprague-Dawley, rat, plasma, po, 10 mg/kg"}, "[17]": {"details": "male, Sprague-Dawley, rat, plasma, iv, 2 mg/kg"}}, "note": "Where “and” joins values, the source holds several entries; their conditions need not be identical. Identical values can stand only once. Like-named read-outs stand apart in the source and are kept apart here."}
{"smiles": "CNC[C@@H](O)COc1ccc(Cl)c(-c2nc(-c3c(C)noc3C)c(C)c(N3CC4(CCN(C(=O)OC)CC4)C3)n2)c1", "note": "[EZM2302]", "values": [{"measurement": "IC50", "setting": "[1]", "result": "> 7.33", "unit": "µM"}, {"measurement": "CL (plasma clearance)", "setting": "[2]; Sprague-Dawley rat, IV Bolus 2 mg/kg, 2 mg/kg", "result": "90.5 ± 10.5", "unit": "mL/min/kg"}, {"measurement": "Fa*Fg (fraction of the dose absorbed from the gastro-intestinal tract)", "setting": "[2]; Sprague-Dawley rat, PO 10 mg/kg, JVC-PVC rat PK experiment, 10 mg/kg", "result": "81% and 80.7%"}, {"measurement": "AUC(0-inf)", "setting": "[2]; [16]", "result": "487 ± 102", "unit": "ng·h/mL"}, {"measurement": "AUC(0-t)", "setting": "[2]; [16]", "result": "453 ± 89.3", "unit": "ng·h/mL"}, {"measurement": "Cmax", "setting": "[2]; [16]", "result": "113 ± 22.4", "unit": "ng/mL"}, {"measurement": "Tmax", "setting": "[2]; [16]", "result": 2, "unit": "h"}, {"measurement": "bioavailability", "setting": "[2]; [16]", "result": "26.2 ± 5.45", "unit": "%"}, {"measurement": "half-life", "setting": "[2]; [16]", "result": "6.64 ± 1.41", "unit": "h"}, {"measurement": "AUC(0-inf)", "setting": "[2]; [17]", "result": "372 ± 43.3", "unit": "ng·h/mL"}, {"measurement": "AUC(0-t)", "setting": "[2]; [17]", "result": "352 ± 30.6", "unit": "ng·h/mL"}, {"measurement": "Vd", "setting": "[2]; [17]", "result": "35.6 ± 1.3", "unit": "L/kg"}, {"measurement": "half-life", "setting": "[2]; [17]", "result": "6.21 ± 1.65", "unit": "h"}, {"measurement": "clearance", "setting": "[2]; male, Sprague-Dawley, rat, plasma, iv, 2 mg/kg, CL (plasma clearance), Sprague-Dawley rat, IV Bolus 2 mg/kg", "result": 91, "unit": "mL/min/kg"}, {"measurement": "Tumor growth inhibition (TGI)", "setting": "[3]; 37.5 mg/kg BID oral, 21 days", "result": 45, "unit": "%"}, {"measurement": "increase in unmethylated SmB (SmBme0) in tumor", "setting": "[3]; 37.5 mg/kg BID oral, day 21", "result": 8, "unit": "fold"}, {"measurement": "maximal inhibition of aDMA levels in tumor", "setting": "[3]; 75 mg/kg BID oral, day 21", "result": 65, "unit": "%"}, {"measurement": "Methylated PABP1 in tumor", "setting": "[3]; 75 mg/kg and higher dose groups, day 21", "result": "undetectable in most animals"}, {"measurement": "increase in unmethylated SmB (SmBme0) in tumor", "setting": "[3]; 150 mg/kg BID oral, day 21", "result": 14, "unit": "fold"}, {"measurement": "tolerability", "setting": "[3]; 150 mg/kg and below BID oral, 21 days", "result": "well tolerated"}, {"measurement": "Tumor growth inhibition (TGI)", "setting": "[3]; 300 mg/kg BID oral, 21 days", "result": 63, "unit": "%"}, {"measurement": "body weight", "setting": "[3]; 300 mg/kg BID oral, 21 days", "result": "some body weight loss"}, {"measurement": "weight loss leading to dosing holidays", "setting": "[3]; 6 of 8 animals in the 300 mg/kg group, holidays of 2 to 8 days", "result": "greater than 8%"}, {"measurement": "day of maximal changes in methylation in tumor tissue", "setting": "[3]; 150 and 300 mg/kg BID, sampled after 2, 4 and 8 days", "result": 4, "unit": "days"}, {"measurement": "IC50", "setting": "[4]; read-out: IC50, PABP1me2a", "result": 0.009, "unit": "µM"}, {"measurement": "IC50", "setting": "[4]; read-out: IC50, SmBme0", "result": 0.031, "unit": "µM"}, {"measurement": "fraction unbound at 16 h, 5 µM", "setting": "[5]", "result": 0.74}, {"measurement": "IC50", "setting": "[6]", "result": 25.9, "unit": "µM"}, {"measurement": "IC50", "setting": "[7]", "result": "> 26.1", "unit": "µM"}, {"measurement": "IC50", "setting": "[8]", "result": "> 36", "unit": "µM"}, {"measurement": "IC50", "setting": "[9]", "result": 22.1, "unit": "µM"}, {"measurement": "IC50", "setting": "[10]", "result": "> 36.7", "unit": "µM"}, {"measurement": "IC50", "setting": "[11]", "result": "> 36.7", "unit": "µM"}, {"measurement": "IC50", "setting": "[12]", "result": 20.4, "unit": "µM"}, {"measurement": "IC50", "setting": "[13]", "result": "> 36.5", "unit": "µM"}, {"measurement": "IC50", "setting": "[14]", "result": "> 27.6", "unit": "µM"}, {"measurement": "IC50", "setting": "[15]", "result": 4.95, "unit": "µM"}]}
